Results from ChEMBL document CHEMBL3877299, “Imidazopyridine-fused [1,3]-diazepinones part 2: Structure-activity relationships and antiproliferative activity against melanoma cells” (Eur J Med Chem, 2017).

Legend:
[1] = Cytotoxicity against human MDA-MB-435 cells assessed as growth inhibition after 48 hrs by MTT assay; format: functional; settings: MDA-MB-435, 48 h
[2] = Growth inhibition of human K562 cells assessed as cell growth at 10 uM incubated for 48 hrs by sulforhodamine B assay relative to control; format: functional; settings: K562, 48 h, read-out: Activity
[3] = Growth inhibition of human RPMI8226 cells assessed as cell growth at 10 uM incubated for 48 hrs by sulforhodamine B assay relative to control; format: functional; settings: RPMI-8226, 48 h, read-out: Activity
[4] = Growth inhibition of human NCI-H226 cells assessed as cell growth at 10 uM incubated for 48 hrs by sulforhodamine B assay relative to control; format: functional; settings: NCI-H226, 48 h, read-out: Activity
[5] = Growth inhibition of human NCI-H23 cells assessed as cell growth at 10 uM incubated for 48 hrs by sulforhodamine B assay relative to control; format: functional; settings: NCI-H23, 48 h, read-out: Activity
[6] = Growth inhibition of human NCI-H322M cells assessed as cell growth at 10 uM incubated for 48 hrs by sulforhodamine B assay relative to control; format: functional; settings: read-out: Activity
[7] = Growth inhibition of human NCI-H460 cells assessed as cell growth at 10 uM incubated for 48 hrs by sulforhodamine B assay relative to control; format: functional; settings: NCI-H460, 48 h, read-out: Activity
[8] = Growth inhibition of human COLO205 cells assessed as cell growth at 10 uM incubated for 48 hrs by sulforhodamine B assay relative to control; format: functional; settings: COLO 205, 48 h, read-out: Activity
[9] = Growth inhibition of human HCT116 cells assessed as cell growth at 10 uM incubated for 48 hrs by sulforhodamine B assay relative to control; format: functional; settings: HCT-116, 48 h, read-out: Activity
[10] = Growth inhibition of human HCT15 cells assessed as cell growth at 10 uM incubated for 48 hrs by sulforhodamine B assay relative to control; format: functional; settings: HCT-15, 48 h, read-out: Activity
[11] = Growth inhibition of human HT-29 cells assessed as cell growth at 10 uM incubated for 48 hrs by sulforhodamine B assay relative to control; format: functional; settings: HT-29, 48 h, read-out: Activity
[12] = Growth inhibition of human KM12 cells assessed as cell growth at 10 uM incubated for 48 hrs by sulforhodamine B assay relative to control; format: functional; settings: KM12, 48 h, read-out: Activity
[13] = Growth inhibition of human SF268 cells assessed as cell growth at 10 uM incubated for 48 hrs by sulforhodamine B assay relative to control; format: functional; settings: SF-268, 48 h, read-out: Activity
[14] = Growth inhibition of human SF539 cells assessed as cell growth at 10 uM incubated for 48 hrs by sulforhodamine B assay relative to control; format: functional; settings: SF-539, 48 h, read-out: Activity
[15] = Growth inhibition of human SNB19 cells assessed as cell growth at 10 uM incubated for 48 hrs by sulforhodamine B assay relative to control; format: functional; settings: SNB-19, 48 h, read-out: Activity
[16] = Growth inhibition of human SNB75 cells assessed as cell growth at 10 uM incubated for 48 hrs by sulforhodamine B assay relative to control; format: functional; settings: SNB-75, 48 h, read-out: Activity
[17] = Growth inhibition of human MDA-MB-435 cells assessed as cell growth at 10 uM incubated for 48 hrs by sulforhodamine B assay relative to control; format: functional; settings: MDA-MB-435, 48 h, read-out: Activity
[18] = Growth inhibition of human SK-MEL-2 cells assessed as cell growth at 10 uM incubated for 48 hrs by sulforhodamine B assay relative to control; format: functional; settings: SK-MEL-2, 48 h, read-out: Activity
[19] = Growth inhibition of human SK-MEL-28 cells assessed as cell growth at 10 uM incubated for 48 hrs by sulforhodamine B assay relative to control; format: functional; settings: SK-MEL-28, 48 h, read-out: Activity
[20] = Growth inhibition of human SK-MEL-5 cells assessed as cell growth at 10 uM incubated for 48 hrs by sulforhodamine B assay relative to control; format: functional; settings: SK-MEL-5, 48 h, read-out: Activity
[21] = Growth inhibition of human A498 cells assessed as cell growth at 10 uM incubated for 48 hrs by sulforhodamine B assay relative to control; format: functional; settings: A498, 48 h, read-out: Activity
[22] = Growth inhibition of human ACHN cells assessed as cell growth at 10 uM incubated for 48 hrs by sulforhodamine B assay relative to control; format: functional; settings: read-out: Activity
[23] = Growth inhibition of human Caki1 cells assessed as cell growth at 10 uM incubated for 48 hrs by sulforhodamine B assay relative to control; format: functional; settings: CAKI-1, 48 h, read-out: Activity
[24] = Growth inhibition of human TK10 cells assessed as cell growth at 10 uM incubated for 48 hrs by sulforhodamine B assay relative to control; format: functional; settings: TK-10, 48 h, read-out: Activity
[25] = Growth inhibition of human T47D cells assessed as cell growth at 10 uM incubated for 48 hrs by sulforhodamine B assay relative to control; format: functional; settings: read-out: Activity
[26] = molecular target: Mitogen-activated protein kinase kinase kinase kinase 4 (Homo sapiens, UniProt O95819); assay: Inhibition of recombinant human HGK using Ulight-FLGFTYVAP as substrate after 90 mins by LANCE assay
Chain of Mitogen-activated protein kinase kinase kinase kinase 4 (O95819 whole entry): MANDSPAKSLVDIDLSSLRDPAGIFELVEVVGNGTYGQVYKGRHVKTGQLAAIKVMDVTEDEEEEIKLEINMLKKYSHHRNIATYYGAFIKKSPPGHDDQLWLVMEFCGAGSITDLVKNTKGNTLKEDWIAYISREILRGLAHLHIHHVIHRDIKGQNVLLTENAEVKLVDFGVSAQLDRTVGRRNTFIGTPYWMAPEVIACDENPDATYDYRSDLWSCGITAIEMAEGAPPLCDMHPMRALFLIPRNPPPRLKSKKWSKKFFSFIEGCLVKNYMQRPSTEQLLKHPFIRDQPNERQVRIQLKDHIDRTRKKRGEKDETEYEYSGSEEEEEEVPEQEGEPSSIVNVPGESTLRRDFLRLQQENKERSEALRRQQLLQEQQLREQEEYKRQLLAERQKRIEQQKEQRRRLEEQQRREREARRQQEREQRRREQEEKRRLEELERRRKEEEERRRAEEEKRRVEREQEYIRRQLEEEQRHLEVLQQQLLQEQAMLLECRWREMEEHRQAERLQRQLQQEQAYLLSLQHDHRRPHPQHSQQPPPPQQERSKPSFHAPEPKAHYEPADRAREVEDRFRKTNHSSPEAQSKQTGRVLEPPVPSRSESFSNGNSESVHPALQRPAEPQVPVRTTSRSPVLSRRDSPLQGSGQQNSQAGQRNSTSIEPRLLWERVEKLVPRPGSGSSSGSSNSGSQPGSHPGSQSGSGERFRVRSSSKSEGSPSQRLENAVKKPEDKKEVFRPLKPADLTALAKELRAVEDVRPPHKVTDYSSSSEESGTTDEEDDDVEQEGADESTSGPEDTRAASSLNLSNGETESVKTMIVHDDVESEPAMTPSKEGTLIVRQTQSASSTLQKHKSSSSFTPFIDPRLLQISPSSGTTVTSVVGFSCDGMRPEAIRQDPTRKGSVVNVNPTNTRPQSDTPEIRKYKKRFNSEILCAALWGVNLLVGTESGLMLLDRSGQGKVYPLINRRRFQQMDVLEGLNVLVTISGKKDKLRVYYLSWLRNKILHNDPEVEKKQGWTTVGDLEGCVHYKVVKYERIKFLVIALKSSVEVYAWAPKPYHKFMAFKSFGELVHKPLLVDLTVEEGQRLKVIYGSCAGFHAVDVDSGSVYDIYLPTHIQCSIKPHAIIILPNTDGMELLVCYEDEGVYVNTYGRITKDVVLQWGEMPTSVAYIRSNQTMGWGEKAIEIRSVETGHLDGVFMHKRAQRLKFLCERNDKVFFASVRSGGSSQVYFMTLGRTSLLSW

[27] = Growth inhibition of human HOP92 cells assessed as cell growth at 10 uM incubated for 48 hrs by sulforhodamine B assay relative to control; format: functional; settings: HOP-92, 48 h, read-out: Activity

In the case of `C[C@@H]1NC(c2ccc(Cl)cc2)=Nc2nc3ccccn3c2C1=O`, the GI50 [1] is reported as 5000 nM, the growth at 10 µM [2] is reported as 70% and the growth at 10 µM [3] is reported as 91.3%. The growth at 10 µM [4] was 88%, the growth at 10 µM [5] was 81.4% and the growth at 10 µM [6] was 87%. It also gave a growth at 10 µM [7] of 96.1%, a growth at 10 µM [8] of 91.8% and a growth at 10 µM [9] of 97%. It also gave a growth at 10 µM [10] of 77.6%, a growth at 10 µM [11] of 85.4% and a growth at 10 µM [12] of 64.2%. For the same compound, the growth at 10 µM [13] was 87.3%, the growth at 10 µM [14] was 84.7% and the growth at 10 µM [15] was 93.2%. The growth at 10 µM [16] was 92.5%, the growth at 10 µM [17] was 32.9% and the growth at 10 µM [18] was 84.8%. The growth at 10 µM [19] was 92.8%, the growth at 10 µM [20] was 87.7% and the growth at 10 µM [21] was 118%. For the same compound, the growth at 10 µM [22] was 88.3%, the growth at 10 µM [23] was 84.6% and the growth at 10 µM [24] was 114%. The growth at 10 µM [25] was 81.4%.
`CC(C)(C)OC[C@@H]1NC(c2ccc(Br)cc2)=Nc2nc3ccccn3c2C1=O` showed a GI50 [1] of 950 nM, an IC50 [26] of 5600 nM and a growth at 10 µM [2] of 25.2%. The growth at 10 µM [3] was 67.5%, the growth at 10 µM [4] was 78.1% and the growth at 10 µM [5] was 71.5%. It also gave a growth at 10 µM [6] of 84.8%, a growth at 10 µM [7] of 41.3% and a growth at 10 µM [8] of 62.6%. For the same compound, the growth at 10 µM [9] was 43.7%, the growth at 10 µM [10] was 44.1% and the growth at 10 µM [11] was 21.8%. It also gave a growth at 10 µM [12] of 49%, a growth at 10 µM [13] of 74.3% and a growth at 10 µM [14] of 75.8%. It also gave a growth at 10 µM [15] of 76.5%, a growth at 10 µM [16] of 77.4% and a growth at 10 µM [17] of -13.8%. The growth at 10 µM [18] was 49.2%, the growth at 10 µM [19] was 68.6% and the growth at 10 µM [20] was 38.4%. It also gave a growth at 10 µM [21] of 66.9%, a growth at 10 µM [22] of 75.3% and a growth at 10 µM [23] of 64.2%. The growth at 10 µM [24] was 95.1% and the growth at 10 µM [25] was 61.9%.
In the case of `C[C@@H]1NC(c2ccc3ccccc3c2)=Nc2nc3ccccn3c2C1=O`, the GI50 [1] is reported as 1400 nM, the growth at 10 µM [2] is reported as 27.6% and the growth at 10 µM [3] is reported as 43.8%. The growth at 10 µM [4] was 64.5%, the growth at 10 µM [5] was 46.1% and the growth at 10 µM [6] was 73.2%. The growth at 10 µM [7] was 15.2%, the growth at 10 µM [8] was 22.8% and the growth at 10 µM [9] was 18.3%. It also gave a growth at 10 µM [10] of 33.8%, a growth at 10 µM [11] of 5.93% and a growth at 10 µM [12] of 30.3%. The growth at 10 µM [13] was 58%, the growth at 10 µM [14] was 37.2% and the growth at 10 µM [15] was 53.3%. For the same compound, the growth at 10 µM [16] was 37.1%, the growth at 10 µM [17] was -24.6% and the growth at 10 µM [18] was 36.3%. The growth at 10 µM [19] was 59.9%, the growth at 10 µM [20] was 35.3% and the growth at 10 µM [21] was 47.2%. For the same compound, the growth at 10 µM [22] was 55.4%, the growth at 10 µM [23] was 38.5% and the growth at 10 µM [24] was 64.4%. For the same compound, the growth at 10 µM [25] was 41.7%.
In the case of `C[C@@H]1NC(c2ccc(Cl)cc2Cl)=Nc2nc3ccccn3c2C1=O`, the GI50 [1] is reported as 1150 nM, the IC50 [26] is reported as > 100000 nM and the growth at 10 µM [2] is reported as 23.6%. The growth at 10 µM [3] was 75.2%, the growth at 10 µM [27] was 55.9% and the growth at 10 µM [4] was 75.7%. For the same compound, the growth at 10 µM [5] was 61.4%, the growth at 10 µM [6] was 63.6% and the growth at 10 µM [7] was 18.7%. It also gave a growth at 10 µM [8] of 22.3%, a growth at 10 µM [9] of 28.1% and a growth at 10 µM [10] of 35.1%. The growth at 10 µM [11] was 7.68%, the growth at 10 µM [12] was 23.8% and the growth at 10 µM [13] was 58.9%. For the same compound, the growth at 10 µM [14] was 53%, the growth at 10 µM [15] was 60.8% and the growth at 10 µM [16] was 58.7%. The growth at 10 µM [17] was -16.6%, the growth at 10 µM [18] was 38.2% and the growth at 10 µM [19] was 60.7%. For the same compound, the growth at 10 µM [20] was 39.6%, the growth at 10 µM [21] was 60.7% and the growth at 10 µM [22] was 60.2%. For the same compound, the growth at 10 µM [23] was 47.2%, the growth at 10 µM [24] was 74.5% and the growth at 10 µM [25] was 64.3%.
